The test system of this assay is CD2F1 mice, L1210 leukemia ip, survival T/C. Description: NCI In Vivo Anticancer Drug Screen. Data for tumor model L1210 Leukemia (intraperitoneal) in CD2F1 (CDF1) mice. The settings on record: higher = longer survival. The gist of the method:
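In this screen, transplantable tumors were grown in mice given either the compound or its vehicle. Results were expressed as the treated measurement relative to the control measurement.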

Setting [1] is: endpoint: mean survival time, dose: 100.0 mg/kg/injection, schedule: Q01DX009 (ip), vehicle: saline with Tween-80.
The mark [2] stands for this setting: endpoint: mean survival time, dose: 200.0 mg/kg/injection, schedule: Q01DX009 (ip), vehicle: saline with Tween-80.
The mark [3] stands for this setting: endpoint: mean survival time, dose: 400.0 mg/kg/injection, schedule: Q01DX009 (ip), vehicle: saline with Tween-80.
[4] abbreviates: endpoint: mean survival time, dose: 100.0 mg/kg/injection, schedule: Q01DX001 (ip), vehicle: saline with Tween-80.
The mark [5] stands for this setting: endpoint: mean survival time, dose: 200.0 mg/kg/injection, schedule: Q01DX001 (ip), vehicle: saline with Tween-80.
[6] abbreviates: endpoint: mean survival time, dose: 400.0 mg/kg/injection, schedule: Q01DX001 (ip), vehicle: saline with Tween-80.

For 13 compounds, T/C results are on record in PubChem BioAssay AID256 (DTP/NCI, 2004).

“And” between values parts separate entries of the source, which are not always exact repeats. Identical values can stand only once. Toxic doses and inconclusive results are not listed.

Regarding `CC(Br)C(=O)c1ccc(OC(=O)c2ccccc2)cc1` (configuration not stated), the T/C was 100 % of control (endpoint: mean survival time, dose: 100.0 mg/kg/injection, schedule: Q01DX001 (ip), vehicle: saline); 100 % of control (endpoint: mean survival time, dose: 200.0 mg/kg/injection, schedule: Q01DX001 (ip), vehicle: saline); 100 % of control (endpoint: mean survival time, dose: 400.0 mg/kg/injection, schedule: Q01DX001 (ip), vehicle: saline).
With `Cc1ccc(C(=O)c2cnc(C)n2Cc2ccccc2)cc1`, the T/C is 92 % of control under setting [1], 92 % of control under setting [2] and 97 % of control under setting [3].
For the compound `CC(C)(O)CCC(C)(O)C1CCC2C3CCC4CC(O)CCC4(C)C3CCC21C` (configuration not stated), the T/C by setting is: under setting [4], 92 % of control; under setting [5], 93 % of control; under setting [6], 86 % of control.
For the compound `N=c1ccn(C2OC(CO)C(O)C2O)c(=O)n1O` (configuration not stated), the T/C is 156 % of control (endpoint: mean survival time, dose: 16.0 mg/kg/injection, schedule: Q01DX008 (ip), vehicle: saline); 110 % of control (endpoint: mean survival time, dose: 16.0 mg/kg/injection, schedule: Q01DX008 (oral), vehicle: saline); 161 % of control (endpoint: mean survival time, dose: 32.0 mg/kg/injection, schedule: Q01DX008 (ip), vehicle: saline); 170 % of control (endpoint: mean survival time, dose: 64.0 mg/kg/injection, schedule: Q01DX008 (ip), vehicle: saline); 101 % of control (endpoint: mean survival time, dose: 128.0 mg/kg/injection, schedule: Q01DX001 (ip), vehicle: saline); 96 % of control (endpoint: mean survival time, dose: 128.0 mg/kg/injection, schedule: Q01DX001 (oral), vehicle: saline). Besides, the T/C by setting is: (endpoint: mean survival time, dose: 128.0 mg/kg/injection, schedule: Q01DX008 (ip), vehicle: saline) 176 % of control; (endpoint: mean survival time, dose: 128.0 mg/kg/injection, schedule: Q01DX008 (oral), vehicle: saline) 156 % of control; (endpoint: mean survival time, dose: 128.0 mg/kg/injection, schedule: Q01DX009 (ip), vehicle: saline) 206 % of control; (endpoint: mean survival time, dose: 128.0 mg/kg/injection, schedule: Q04DX003 (oral), vehicle: saline) 103 % of control; (endpoint: mean survival time, dose: 256.0 mg/kg/injection, schedule: Q01DX001 (ip), vehicle: saline) 102 % of control; (endpoint: mean survival time, dose: 256.0 mg/kg/injection, schedule: Q01DX001 (oral), vehicle: saline) 100 % of control. Also, the T/C was 214 % of control (endpoint: mean survival time, dose: 256.0 mg/kg/injection, schedule: Q01DX009 (ip), vehicle: saline); 110 % of control (endpoint: mean survival time, dose: 256.0 mg/kg/injection, schedule: Q04DX003 (oral), vehicle: saline); 111 % of control (endpoint: mean survival time, dose: 512.0 mg/kg/injection, schedule: Q01DX001 (ip), vehicle: saline); 103 % of control (endpoint: mean survival time, dose: 512.0 mg/kg/injection, schedule: Q01DX001 (oral), vehicle: saline); 120 % of control (endpoint: mean survival time, dose: 512.0 mg/kg/injection, schedule: Q01DX009 (ip), vehicle: saline); 167 % of control (endpoint: mean survival time, dose: 512.0 mg/kg/injection, schedule: Q01DX009 (oral), vehicle: saline). The T/C was 153 % of control (endpoint: mean survival time, dose: 512.0 mg/kg/injection, schedule: Q04DX003 (ip), vehicle: saline); 108 % of control (endpoint: mean survival time, dose: 1024.0 mg/kg/injection, schedule: Q01DX001 (ip), vehicle: saline); 122 % of control (endpoint: mean survival time, dose: 1024.0 mg/kg/injection, schedule: Q01DX001 (oral), vehicle: saline); 116 % of control (endpoint: mean survival time, dose: 1024.0 mg/kg/injection, schedule: Q01DX009 (ip), vehicle: saline); 210 % of control (endpoint: mean survival time, dose: 1024.0 mg/kg/injection, schedule: Q01DX009 (oral), vehicle: saline); 155 % of control (endpoint: mean survival time, dose: 1024.0 mg/kg/injection, schedule: Q04DX003 (ip), vehicle: saline). Under “endpoint: mean survival time, dose: 1024.0 mg/kg/injection, schedule: Q04DX003 (oral), vehicle: saline”, the T/C was 155 % of control.
As to `S=C=NCCCCCCN=C=S`, the T/C is 104 % of control (endpoint: mean survival time, dose: 6.25 mg/kg/injection, schedule: Q04DX002 (ip), vehicle: saline); 98 % of control (endpoint: mean survival time, dose: 12.5 mg/kg/injection, schedule: Q04DX002 (ip), vehicle: saline); 90 % of control and 102 % of control (endpoint: mean survival time, dose: 25.0 mg/kg/injection, schedule: Q04DX002 (ip), vehicle: saline); 98 % of control (endpoint: mean survival time, dose: 50.0 mg/kg/injection, schedule: Q04DX002 (ip), vehicle: saline).
For `Nc1ccn(C2OC(COP(=O)(O)Oc3ccccc3)C(O)C2O)c(=O)n1` (configuration not stated), the T/C is, setting by setting: (endpoint: mean survival time, dose: 12.5 mg/kg/injection, schedule: Q01DX009 (ip), vehicle: suspension in saline) 162 % of control; (endpoint: mean survival time, dose: 25.0 mg/kg/injection, schedule: Q01DX009 (ip), vehicle: suspension in saline) 194 % of control; (endpoint: mean survival time, dose: 50.0 mg/kg/injection, schedule: Q01DX009 (ip), vehicle: suspension in saline) 202 % of control; (endpoint: mean survival time, dose: 100.0 mg/kg/injection, schedule: Q01DX009 (ip), vehicle: suspension in saline) 223 % of control.
With `Cc1ccc(S(=O)(=O)NN=C2CCC3(CC2)c2ccccc2-c2ccccc23)cc1`, the T/C (endpoint: mean survival time, dose: 100.0 mg/kg/injection, schedule: Q01DX001 (ip), vehicle: Klucel (hydroxypropylcellulose) (HPC)) was 96 % of control; the T/C (endpoint: mean survival time, dose: 200.0 mg/kg/injection, schedule: Q01DX001 (ip), vehicle: Klucel (hydroxypropylcellulose) (HPC)) is 96 % of control; the T/C (endpoint: mean survival time, dose: 400.0 mg/kg/injection, schedule: Q01DX001 (ip), vehicle: Klucel (hydroxypropylcellulose) (HPC)) is 98 % of control.
Take `O=c1cc(O)c(Cl)nn1C1OC(CO)C(O)C1O` (configuration not stated): the T/C is 103 % of control (endpoint: mean survival time, dose: 12.5 mg/kg/injection, schedule: Q01DX009 (ip), vehicle: water); 97 % of control (endpoint: mean survival time, dose: 25.0 mg/kg/injection, schedule: Q01DX009 (ip), vehicle: water); 100 % of control (endpoint: mean survival time, dose: 50.0 mg/kg/injection, schedule: Q01DX009 (ip), vehicle: water); 100 % of control (endpoint: mean survival time, dose: 100.0 mg/kg/injection, schedule: Q01DX009 (ip), vehicle: water); 95 % of control (endpoint: mean survival time, dose: 200.0 mg/kg/injection, schedule: Q01DX009 (ip), vehicle: water); 91 % of control (endpoint: mean survival time, dose: 400.0 mg/kg/injection, schedule: Q01DX009 (ip), vehicle: water).
Turning to `O=P1(N(CCCl)CCCl)NCCC2(O1)C1CC3CC(C1)CC2C3` (configuration not stated), the T/C by setting is: (endpoint: mean survival time, dose: 15.6 mg/kg/injection, schedule: Q01DX001 (ip), vehicle: distilled water + Tween-80) 97 % of control; (endpoint: mean survival time, dose: 31.3 mg/kg/injection, schedule: Q01DX001 (ip), vehicle: distilled water + Tween-80) 96 % of control; (endpoint: mean survival time, dose: 62.5 mg/kg/injection, schedule: Q01DX001 (ip), vehicle: distilled water + Tween-80) 99 % of control; (endpoint: mean survival time, dose: 125.0 mg/kg/injection, schedule: Q01DX001 (ip), vehicle: distilled water + Tween-80) 86 % of control; (endpoint: mean survival time, dose: 500.0 mg/kg/injection, schedule: Q01DX001 (ip), vehicle: distilled water + Tween-80) 86 % of control.
As to `OC(COc1ccccc1)CN1CCCCC1` (configuration not stated), the T/C runs as follows: under setting [1], 100 % of control; (endpoint: mean survival time, dose: 100.0 mg/kg/injection, schedule: Q04DX003 (ip), vehicle: saline with Tween-80) 101 % of control; under setting [2], 100 % of control; (endpoint: mean survival time, dose: 200.0 mg/kg/injection, schedule: Q04DX003 (ip), vehicle: saline with Tween-80) 98 % of control; under setting [3], 102 % of control; (endpoint: mean survival time, dose: 400.0 mg/kg/injection, schedule: Q04DX003 (ip), vehicle: saline with Tween-80) 98 % of control.
For `CCOC(=O)/C=C/c1cccc([N+](=O)[O-])c1`, the T/C is 101 % of control under setting [4], 101 % of control under setting [5] and 108 % of control under setting [6].
For the compound `Nc1nc2c(c(=O)[nH]1)CC(=O)N2`, the T/C is 98 % of control (endpoint: median survival time, dose: 50.0 mg/kg/injection, schedule: Q01DX005 (ip), vehicle: saline); 100 % of control (endpoint: median survival time, dose: 100.0 mg/kg/injection, schedule: Q01DX005 (ip), vehicle: saline); 104 % of control (endpoint: median survival time, dose: 200.0 mg/kg/injection, schedule: Q01DX005 (ip), vehicle: saline).
For `O=C(CC1CCCCN1)CC1CCCCN1` (configuration not stated), the T/C reads like this: (endpoint: median survival time, dose: 25.0 mg/kg/injection, schedule: Q04DX003 (ip), vehicle: saline) 100 % of control; (endpoint: median survival time, dose: 50.0 mg/kg/injection, schedule: Q04DX003 (ip), vehicle: saline) 100 % of control; (endpoint: median survival time, dose: 100.0 mg/kg/injection, schedule: Q04DX003 (ip), vehicle: saline) 90 % of control; (endpoint: median survival time, dose: 200.0 mg/kg/injection, schedule: Q04DX003 (ip), vehicle: saline) 90 % of control.
